MIC, CC50 and IC50 data for ten compounds are collected here from ChEMBL document CHEMBL4414669, “Structural Characterization and Anti-infective Activity of 9,10-Seco-29-norcycloartane Glycosides Isolated from the Flowers of the Peruvian Medicinal Plant Cordia lutea” (J Nat Prod, 2019).

Molecules are shown by their SMILES. In brackets after ≈: the same amount, converted by molar mass. Where only a bound is given, the exact number is not on record here.

The subject of one series is Escherichia coli. The experiment in a line: Antibacterial activity against Escherichia coli ATCC 25922 incubated for 24 hrs by broth microdilution method. The following applies: ATCC 25922, 24 h. The series is classed as functional. In general terms: In broth dilution the organism is exposed to a series of concentrations in liquid medium.
Another series has as its system Staphylococcus aureus. The experiment in a line: Antibacterial activity against Staphylococcus aureus ATCC 25923 incubated for 24 hrs by broth microdilution method. The format is functional. As to conditions: ATCC 25923, 24 h.
Series [1] in a line: Cytotoxicity against mouse RAW264.7 cells assessed as reduction in cell viability incubated for 48 hrs by MTT assay. The format is cell-based. On the technique in general: Tetrazolium dyes change colour on reduction, which living cells bring about.
The subject of the next series is Pseudomonas aeruginosa. Nature of the series: Antibacterial activity against Pseudomonas aeruginosa ATCC 27853 incubated for 24 hrs by broth microdilution method. The format is functional. As to conditions: ATCC 27853, 24 h.
The subject of the next series is Leishmania infantum. Nature of the series: Antileishmanial activity against Leishmania infantum MHOM/MA/67/ITMAP-263 axenic amastigotes assessed as inhibition of parasitic metabolic activity incubated for 48 hrs by steady Glow reagent based luminescence assay. The format is functional, organism-based. The following applies: MHOM/MA/67/ITMAP-263, 48 h.
In a further series the test system is Plasmodium falciparum. The experiment in a line: Antiplasmodial activity against chloroquine-resistant Plasmodium falciparum FcB1 infected in RBC (unknown origin) incubated for 48 hrs by SYBR green dye based fluorescence analysis. The format is functional, organism-based. As to conditions: FcB1, 48 h.
A further series has as its system Helicobacter pylori. Nature of the series: Antibacterial activity against Helicobacter pylori CIP 103995 incubated for 72 hrs under microaerophilic conditions by broth microdilution method. As to conditions: CIP 103995, 72 h. The series is classed as functional.

By MIC is commonly meant the lowest concentration found to suppress growth. A lower MIC goes with inhibition by little substance. In general, CC50 refers to the concentration at which the toxic effect on the cells reaches its halfway point. The term IC50 denotes the concentration that inhibits the measured activity by half.

`C=C(C(C)C)[C@H](O)C[C@@H](C)[C@H]1CC[C@@]2(C)[C@@H]3CC[C@H]4[C@H](C)[C@@H](O[C@@H]5O[C@@H](C)[C@H](O)[C@@H](O)[C@H]5O)CC[C@]4(O)CC3=CC[C@]12C`: the MIC against Escherichia coli was > 125 µg/mL; with Staphylococcus aureus, > 125 µg/mL; with Pseudomonas aeruginosa, > 125 µg/mL; in the series on Helicobacter pylori it was 31.3 µg/mL (≈ 51.7 µM). The CC50 at 48 h in series [1] was 35.1 µM. For the same compound, the figures for the IC50 in the series with Leishmania infantum and in the series on Plasmodium falciparum were 6.7 µM and 55 µM, respectively.

For the compound `COc1cccc2c1C(=O)c1c(O)c3c(c(O)c1C2=O)C[C@@](O)(C(=O)CO)C[C@@H]3O[C@H]1C[C@H](N)[C@H](O)[C@H](C)O1` [DOXORUBICIN], in series [1], the CC50 at 48 h is 0.8 µM.

Turning to `C=C(C(C)C)[C@H](O)C[C@@H](C)[C@H]1CC[C@@]2(C)[C@@H]3CC[C@H]4[C@H](C)[C@@H](O[C@@H]5OC[C@H](O)[C@H](O)[C@H]5O)CC[C@]4(O)CC3=CC[C@]12C`, the MIC against Escherichia coli was > 125 µg/mL; against Staphylococcus aureus, 31.3 µg/mL (≈ 53 µM); in the series on Pseudomonas aeruginosa, > 125 µg/mL; against Helicobacter pylori, 15.6 µg/mL (≈ 26.4 µM). For the same compound, the CC50 at 48 h in series [1] is 26.6 µM. Further, the IC50 with Leishmania infantum amounted to 7.7 µM; in the series on Plasmodium falciparum, 52.4 µM.

As for `C/C=C(\C(C)C)[C@H](O)C[C@@H](C)[C@H]1CC[C@@]2(C)[C@@H]3CC[C@H]4[C@H](C)[C@@H](O[C@@H]5OC[C@H](O)[C@H](O)[C@H]5O)CC[C@]4(O)CC3=CC[C@]12C`, the MIC with Escherichia coli was > 125 µg/mL; against Staphylococcus aureus, 31.3 µg/mL (≈ 51.7 µM); in the series with Pseudomonas aeruginosa, > 125 µg/mL; in the series on Helicobacter pylori, 15.6 µg/mL (≈ 25.8 µM). In series [1], the CC50 at 48 h was 19.6 µM. The values for the IC50 in the series on Leishmania infantum and with Plasmodium falciparum were 6.3 µM and 53.7 µM, respectively.

Turning to `C[C@@H]1[C@H](O)[C@@H](C)/C=C/C=C/C=C/C=C/C=C/C=C/C=C/[C@H](O[C@@H]2O[C@H](C)[C@@H](O)[C@H](N)[C@@H]2O)C[C@@H]2O[C@](O)(C[C@@H](O)C[C@@H](O)[C@H](O)CC[C@@H](O)C[C@@H](O)CC(=O)O[C@H]1C)C[C@H](O)[C@H]2C(=O)O` [AMPHOTERICIN B], the IC50 in the series with Leishmania infantum came out at 0.07 µM.

Consider `CN(C)[C@@H]1C(O)=C(C(N)=O)C(=O)[C@@]2(O)C(O)=C3C(=O)c4c(O)cccc4[C@@](C)(O)[C@H]3C[C@@H]12` [TETRACYCLINE], for which the MIC in the series with Escherichia coli stood at 2 µg/mL (≈ 4.5 µM); against Staphylococcus aureus, 0.5 µg/mL (≈ 1.13 µM); with Pseudomonas aeruginosa, 16 µg/mL (≈ 36 µM).

In turn, `CC[C@H]1OC(=O)[C@H](C)[C@@H](O[C@H]2C[C@@](C)(OC)[C@@H](O)[C@H](C)O2)[C@H](C)[C@@H](O[C@@H]2O[C@H](C)C[C@H](N(C)C)[C@H]2O)[C@](C)(OC)C[C@@H](C)C(=O)[C@H](C)[C@@H](O)[C@]1(C)O` [CLARITHROMYCIN] yielded an MIC in the series on Helicobacter pylori of 0.01 µg/mL (≈ 0.0134 µM).

On to `C/C=C(\C(C)C)[C@H](O)C[C@@H](C)[C@H]1CC[C@@]2(C)[C@@H]3CC[C@H]4[C@H](C)[C@@H](O[C@@H]5O[C@@H](C)[C@H](O)[C@@H](O)[C@H]5O)CC[C@]4(O)CC3=CC[C@]12C`, for which the MIC in the series on Escherichia coli was > 125 µg/mL; against Staphylococcus aureus, > 125 µg/mL; in the series with Pseudomonas aeruginosa, > 125 µg/mL; in the series with Helicobacter pylori, 31.3 µg/mL (≈ 50.6 µM). For the same compound, the CC50 at 48 h in series [1] is 21.9 µM. In addition, the IC50 in the series on Leishmania infantum came out at 5.2 µM; in the series on Plasmodium falciparum it was 61.3 µM.

In the case of `C/C=C(\C(C)C)[C@H](O)C[C@@H](C)[C@H]1CC[C@@]2(C)[C@@H]3CC[C@H]4[C@H](C)[C@@H](O[C@@H]5OC[C@@H](O)[C@H](O)[C@H]5O)CC[C@]4(O)CC3=CC[C@]12C`, the MIC is > 125 µg/mL against Escherichia coli, > 125 µg/mL against Staphylococcus aureus, > 125 µg/mL against Pseudomonas aeruginosa and 15.6 µg/mL (≈ 25.8 µM) with Helicobacter pylori. In addition, the CC50 at 48 h in series [1] worked out at 30.3 µM. The IC50 with Leishmania infantum worked out at 5.2 µM; in the series with Plasmodium falciparum, 46.9 µM.

As for `C=C(C(C)C)[C@H](O)C[C@@H](C)[C@H]1CC[C@@]2(C)[C@@H]3CC[C@H]4[C@H](C)[C@@H](O[C@@H]5OC[C@@H](O)[C@H](O)[C@H]5O)CC[C@]4(O)CC3=CC[C@]12C`, the MIC in the series on Escherichia coli was > 125 µg/mL; in the series on Staphylococcus aureus, 62.5 µg/mL (≈ 106 µM); against Pseudomonas aeruginosa, > 125 µg/mL; in the series on Helicobacter pylori, 15.6 µg/mL (≈ 26.4 µM). Further, in series [1], the CC50 at 48 h is 24.2 µM. Moreover, the IC50 in the series on Leishmania infantum was 5 µM; in the series with Plasmodium falciparum, > 150 µM.
